From the NIST ThermoML archive (doi:10.1021/je9002306)

Columns and labels:
[1] = mn = molality of the nth substance listed, in mol/kg; details: 298.15 K, 101.3 kPa, Liquid, Vibrating tube method
[2] = cn = amount concentration of the nth substance listed, in mol/dm3; details: 298.15 K, 101.3 kPa, Liquid, Wayne-Kerr 6430B Auto Balance Bridge

CCCCCCCCCCn1cc[n+](C)c1.[Br-] [1-decyl-3-methylimidazolium bromide] + CN(C)C=O
Details	mass density [kg/m3]	molar conductivity [S·m2/mol]
[1], m1 = 0.004548	944.601	–
[1], m1 = 0.009331	944.904	–
[1], m1 = 0.01416	945.206	–
[1], m1 = 0.01889	945.493	–
[1], m1 = 0.02351	945.774	–
[1], m1 = 0.02843	946.065	–
[1], m1 = 0.03329	946.353	–
[1], m1 = 0.03813	946.64	–
[1], m1 = 0.04346	946.942	–
[1], m1 = 0.04852	947.237	–
[2], c1 = 0.0001732	–	0.007794
[2], c1 = 0.0002484	–	0.007742
[2], c1 = 0.0003119	–	0.007708
[2], c1 = 0.0003859	–	0.007672
[2], c1 = 0.0004585	–	0.007636
[2], c1 = 0.0005275	–	0.007607
[2], c1 = 0.0005939	–	0.007575
[2], c1 = 0.0006636	–	0.007549
[2], c1 = 0.0007275	–	0.007523
[2], c1 = 0.0007761	–	0.007502

CCCCCCCCCCn1cc[n+](C)c1.[Br-] [1-decyl-3-methylimidazolium bromide] + C[S+](C)[O-]
Details	mass density [kg/m3]	molar conductivity [S·m2/mol]
[1], m1 = 0.005147	1095.4	–
[1], m1 = 0.00868	1095.45	–
[1], m1 = 0.01336	1095.53	–
[1], m1 = 0.01682	1095.59	–
[1], m1 = 0.02087	1095.65	–
[1], m1 = 0.02779	1095.77	–
[1], m1 = 0.03347	1095.87	–
[1], m1 = 0.04096	1096	–
[1], m1 = 0.04462	1096.07	–
[1], m1 = 0.05299	1096.22	–
[2], c1 = 0.0002071	–	0.003508
[2], c1 = 0.0003447	–	0.003485
[2], c1 = 0.0004551	–	0.003472
[2], c1 = 0.000577	–	0.003459
[2], c1 = 0.0006934	–	0.003446
[2], c1 = 0.0008066	–	0.003433
[2], c1 = 0.0008974	–	0.003426
[2], c1 = 0.001043	–	0.003413
[2], c1 = 0.001234	–	0.003397

CCCCCCCCCCn1cc[n+](C)c1.[Br-] [1-decyl-3-methylimidazolium bromide] + OCCO
Details	mass density [kg/m3]	molar conductivity [S·m2/mol]
[1], m1 = 0.005851	1109.99	–
[1], m1 = 0.0106	1110	–
[1], m1 = 0.01551	1110	–
[1], m1 = 0.01977	1110.01	–
[1], m1 = 0.02479	1110.01	–
[1], m1 = 0.02646	1110.02	–
[1], m1 = 0.03544	1110.02	–
[1], m1 = 0.03722	1110.02	–
[1], m1 = 0.04453	1110.03	–
[2], c1 = 0.0003546	–	0.000667
[2], c1 = 0.0004359	–	0.000666
[2], c1 = 0.0005147	–	0.000664
[2], c1 = 0.0005865	–	0.000663
[2], c1 = 0.0006739	–	0.000661
[2], c1 = 0.0007633	–	0.00066
[2], c1 = 0.0008415	–	0.000659
[2], c1 = 0.0009056	–	0.000658
[2], c1 = 0.0009847	–	0.000657
[2], c1 = 0.001065	–	0.000656

CCCCCCCCCCCCn1cc[n+](C)c1.[Br-] [1-dodecyl-3-methylimidazolium bromide] + CN(C)C=O
Details	mass density [kg/m3]	molar conductivity [S·m2/mol]
[1], m1 = 0.003861	944.545	–
[1], m1 = 0.008055	944.798	–
[1], m1 = 0.0123	945.047	–
[1], m1 = 0.01627	945.277	–
[1], m1 = 0.02032	945.508	–
[1], m1 = 0.02446	945.745	–
[1], m1 = 0.02703	945.89	–
[1], m1 = 0.03337	946.237	–
[1], m1 = 0.03725	946.45	–
[1], m1 = 0.04099	946.651	–
[2], c1 = 0.0001357	–	0.007691
[2], c1 = 0.0001826	–	0.007656
[2], c1 = 0.0002263	–	0.007631
[2], c1 = 0.0002718	–	0.007605
[2], c1 = 0.0003169	–	0.007581
[2], c1 = 0.0003578	–	0.007564
[2], c1 = 0.0004043	–	0.007541
[2], c1 = 0.0004399	–	0.007527
[2], c1 = 0.0004725	–	0.00751
[2], c1 = 0.0005219	–	0.007494

CCCCCCCCCCCCn1cc[n+](C)c1.[Br-] [1-dodecyl-3-methylimidazolium bromide] + C[S+](C)[O-]
Details	mass density [kg/m3]	molar conductivity [S·m2/mol]
[1], m1 = 0.00268	1095.36	–
[1], m1 = 0.004967	1095.36	–
[1], m1 = 0.007868	1095.37	–
[1], m1 = 0.01038	1095.38	–
[1], m1 = 0.01304	1095.39	–
[1], m1 = 0.016	1095.41	–
[1], m1 = 0.01873	1095.42	–
[1], m1 = 0.02082	1095.43	–
[1], m1 = 0.02457	1095.44	–
[1], m1 = 0.02736	1095.46	–
[2], c1 = 0.0003026	–	0.003442
[2], c1 = 0.0003758	–	0.003429
[2], c1 = 0.0004555	–	0.003416
[2], c1 = 0.0005343	–	0.003406
[2], c1 = 0.0006078	–	0.003397
[2], c1 = 0.0006771	–	0.003389
[2], c1 = 0.0007464	–	0.003381
[2], c1 = 0.0008059	–	0.003374
[2], c1 = 0.0009021	–	0.003365
